From patent US20220401367A1, “REHYDRATABLE, MORPHOLOGICALLY DIVERSE NANOCARRIER POWDERS” (Northwestern University, priority 2021, published 2022)

Key:
[1] = system: RAW 264.7 macrophages; assay: Flow cytometric analysis of nanocarrier uptake by macrophages (MFI), with or without endocytosis inhibitors; assay type: cell-based; details: 50 μM CytD or 50 μM CPZ pre-treatment; nanocarriers at 1.0 mg/mL polymer
Method: (§1) Macrophage cell culture. RAW 264.7 macrophages were purchased from ATCC and were cultured in T75 polystyrene tissue culture flasks (BD Biosciences) in Dulbecco's Modified Eagle Medium supplemented with 10% fetal bovine serum (FBS) (Gibco) and 1% penicillin/streptomycin antibiotics (Life Technologies). Cells were passaged by mechanical scraping after reaching 70-80% confluency.
(§2) Flow cytometric analysis of nanocarrier uptake and cytotoxicity. For each specified cell line, a total of 100,000 cells were seeded per well in 24-well polystyrene plates (Falcon). Cells were allowed to adhere overnight at 37° C., 4.0% CO2. For uptake studies involving endocytosis inhibitor pre-treatments, cells were incubated with either PBS (i.e., no inhibitor), cytochalasin D (CytD, 50 μM) phagocytosis inhibitor, or chlorpromazine (CPZ, 50 μM) clathrin-mediated endocytosis inhibitor prior to administering nanocarriers. Inhibitor concentrations were chosen based on published reports^36,53. Cells were treated with nanocarriers at the specified polymer concentration for 2 h. […] A total of 10,000 single cell events were recorded per sample and the resulting data were analyzed using the Cytobank analysis suite^54. The median fluorescence intensity (MFI) was normalized by subtracting the average MFI from untreated cells and was used to quantify the cellular uptake of nanocarriers.

[2] = system: RAW 264.7 macrophages; assay: Flow cytometric cytotoxicity (Zombie Aqua viability dye) in macrophages; assay type: cell-based; details: mouse, 70 %
Method: as §1, §2

Compound: C=C1[C@@H](C)[C@H]2[C@H](Cc3ccccc3)NC(=O)[C@]23[C@H](OC(C)=O)/C=C/[C@@](C)(O)C(=O)[C@@H](C)C/C=C/[C@H]3[C@@H]1O [cytochalasin D]
- nanocarrier uptake after pre-treatment with endocytosis inhibitors (in words) [1]: decreased uptake of all structures

Compound: CCO [70% ethanol, ethanol]
- macrophage viability [2]: below 30%

Compound: CN(C)CCCN1c2ccccc2Sc2ccc(Cl)cc21 [chlorpromazine]
- nanocarrier uptake after pre-treatment with endocytosis inhibitors (in words) [1]: decreased uptake of all structures
